Results taken from US12564631B2, “Phytosphingosine derivatives as adjuvants in immune stimulation” (Helmholtz-Zentrum für Infektionsforschung GmbH, priority 2020, dated 2026).
Entries after “also recorded” stand apart in the source; their conditions may differ.

How the values were obtained:
[1] = test system: Ova-specific IgG; experiment: Ova-specific IgG titer (ELISA) in sera of mice immunized with Ovalbumin plus adjuvant; type: in vivo; conditions: Ovalbumin 30 μg + adjuvant 15 μg, days 0, 14, 28, sera 14 days after last immunization
Procedure: FIG. 5: Immunization protocol—Administration (intramuscular route) of Ovalbumin with adjuvants. Ovalbumin (30 μg) was co-administered (intramuscular) without or with different adjuvants, such as IPB 2033-2044, c-di-AMP or aßGalCerMPEG (15 μg), on days 0, 14 and 28.
(§1) FIG. 7: Systemic humoral immune responses induced in mice. Shown is the IgG titer as a readout of systemic humoral immune responses induced in mice after three immunizations with Ovalbumin co-administered with different adjuvants via intramuscular route. Ova-specific IgG titers were measured via ELISA in sera 14 days after the last immunization.
FIG. 9: Immunization protocol—Administration (intranasal route) of Ovalbumin with adjuvants. Immunization protocol: Mucosal administration (intranasal (i.n.) route) of Ovalbumin (30 μg) co-administered without or with different adjuvants, such as IPB 2033-2044, c-di-AMP or aßGalCerMPEG (15 μg), on days 0, 14 and 28.
as §1, with “11:” for “7:”, “intranasal” for “intramuscular”, “titers” for “titers were measured via ELISA”
Groups of mice (3-5 animals) were immunized either intranasal (i.n.) or intramuscular (i.m.) on days 0, 14 and 281 with PBS, or with Ovalbumin (30 μg); the latter were administered alone or with different adjuvants—c-di-AMP, aßGalCerMPEG or IPB 2033 to 2044—made up to a maximal volume of 20 μl (i.n.) or 50 μl (i.m.) in PBS.
Blood samples were collected on days 1, 14, 28 and 42 via retro-bulbar bleeding. Spleens of vaccinated mice were aseptically removed. For the subsequent methods, cell suspensions of spleens (n=5) of each immunized groups were prepared and erythrocytes were lysed. These splenocyte pools of each group were cultured in the presence of different concentrations of Ovalbumin; controls received 5 μg/mL concanavalin A. The incorporation of [^3H] thymidine into the DNA of proliferating cells was determined using a scintillation counter (Wallac 1450, Micro-Trilux).
The Ova-specific antibodies were determined in serum samples by ELISA. Endpoint titers were expressed as reciprocal values of the last dilution, which gave an optical density at 405 nm of two times above the values of the negative controls. For calculation purposes, negative samples were assigned an arbitrary titer of the lowest dilution measured.
As described in the protocols above, groups of mice (3-5 animals) were immunized either intranasal (i.n.) or intramuscular (i.m.) on days 0, 14 and 281 with PBS, or with Ovalbumin (30 μg); the latter were administered alone or with different adjuvants—c-di-AMP, aßGalCerMPEG or IPB 2033 to 2044—is shown in FIG. 5-11, intramuscular.

[2] = test system: CD4+ T cells; experiment: CFSE proliferation assay of CD4+ T cells after interaction with Ova/adjuvant-matured bone marrow derived DCs (APC); type: cell-based, mice; conditions: for stimulating effect of CD4+ T cells versus controls with only antigen Ova: CFSE loss up to 7 days, DCs activated with Ova + 10 μg compound, FIG. 4A/4B
Description: FIG. 3B: Cell proliferation tracked by CFSE dilution of CD4+ T cells after interaction with matured Antigen Presenting Cells (APC). With every cell division, the CFSE signal strength is approximately halved. The shown cell numbers indicate the ratio of proliferated live CD4+ T cells.
(§2) FIG. 4: Effect after treatment with IPB 0964-1917—Cell proliferation tracked by CFSE loss of T cells after interaction with matured Antigen Presenting Cells (APC). With every cell division, the CFSE signal strength is reduced. The shown cell numbers indicate the ratio of proliferating T and B cells (7 steps are shown). (A) Numbers of CD4+ T cells are shown at different proliferation steps up to 7 days measuring the loss of CFSE. Naïve cells were treated with one of IPB1901-1912 together with DCs activated with Ova prior to the CFSE assay. (B) Numbers of CD4+ T cells are shown at different proliferation steps up to 7 days measuring the loss of CFSE. Naïve cells were treated with one of IPB2033-2044 together with DCs activated with Ova prior to the CFSE assay. (C) Numbers of CD8+ T cells are shown at different proliferation steps up to 7 days measuring the loss of CFSE. Naïve cells were treated with one of IPB1901-1912 together with DCs activated with Ova prior to the CFSE assay. (D) Numbers of CD8+ T cells are shown at different proliferation steps up to 7 days measuring the loss of CFSE. Naïve cells were treated with one of IPB2033-2044 together with DCs activated with Ova prior to the CFSE assay.
(§3) In order to assess the properties of the inventive compounds in antigen-specific T and B cell stimulation, the compounds were administered to cultured bone marrow cells in a CFSE assay.
(§4) Briefly, femurs and Tibiae of female 4-12 weeks old C57Bl6 (or BALB/c for TCR HA) were removed and purified from the surrounding muscle tissue (Kleenex tissues). Intact Bones were left in 70% ethanol for 2-5 min for disinfection. Both ends were cut with scissors and the bone marrow were flushed with PBS using a syringe with a 0.45 mm diameter needle, clusters were disintegrated by vigorous pipetting.
(§5) In order to obtain activated antigen presenting dendritic cells (DCs), bone marrow cells were cultured with GM-CSF. On Day 0, cells were seeded in a concentration of 2×10^6 cells per 100 mm dish (bacteriological petri dishes) in 10 ml RPMI-10 (100 U Pen/100 μg Strept/2 mM Glutamin/50 μm ß-Mercaptoethanol/10% FCS heat-inactivated and filtered 0.22 μm Filter) containing 200 Units GM-CSF. On Day 3 another 10 ml RPMI-10 containing 200 U GM-CSF were added to the plates. On Day 6 half of the culture supernatants (10 ml) were collected, centrifuged and the cell pellet resuspended in 10 ml fresh RPMI-10/200 U GM-CSF and given back into the original plates.
(§6) Subsequently, the DCs were incubated with Ovalbumin (as antigen) alone or co-administered with known adjuvants, such as α-GalCerMPEG, aßGalCerMPEG or TLR2/6 ligand (BPPcysMPEG), or the novel phytosphingosine derivatives of the present invention. The activation of DCs was controlled by FACS analysis of different CD markers, such as CD40, CD54, CD80, CD86, CD83, MHCI and MHCII.
(§7) The effect of the compounds of the present invention was then ascertained via co-incubation of naïve T or B cells, obtained from mice (OTI or OTII mice) with previous exposure to the Ova antigen, with DCs that had been treated with the compounds of the invention.
(§8) Naïve T cells were derived from LN/spleen from OTI or OTII mice. The MagniSort™ Mouse CD4 naïve or CD8 naïve T cell Enrichment Kit is designed for the magnetic separation of CD4 or CD8 naïve T cells by negative selection from mouse spleens or lymph nodes utilizing a biotinylated antibody cocktail and streptavidin-coated magnetic beads. Undesired cells are bound by antibody (Anti-Mouse CD8 or CD4/CD11b CD19/CD24/CD44/CD45R(B220)/CD49b(Integrin α 2)/Ly-6G (Gr-1)/γδ TCR/TER-119) and then magnetic beads that, when placed in a magnetic field, leave CD4 or CD8 naïve T cells untouched and free in solution. […]

[3] = test system: CD8+ T cells; experiment: CFSE proliferation assay of CD8+ T cells after interaction with Ova/adjuvant-matured bone marrow derived DCs (APC); type: cell-based, mice
Description: FIG. 3C: Cell proliferation tracked by CFSE dilution of CD8+ T cells after interaction with matured Antigen Presenting Cells (APC). With every cell division, the CFSE signal strength is approximately halved. The shown cell numbers indicate the ratio of proliferated live CD8+ T cells
as §2, §3, §4, §5, §6, §7, §8

| Compound | stimulation of antigen specific IgG production compared to control aßGalCerMPEG+ova ([1]; intramuscular (i.m.), FIG. 7) | stimulation of antigen specific IgG production compared to control aßGalCerMPEG+ova ([1]; intranasal (i.n.), FIG. 11) | capacity to induce antigen specific CD4+ T cell proliferation ([2]; DCs restimulated with Ovalbumin + 10 μg compound for 24 h, interaction with APC for 5 days, FIG. 3B) | effect to induce antigen specific CD8+ T cell proliferation ([3]; DCs restimulated with Ovalbumin + 10 μg compound for 24 h, interaction with APC for 5 days, FIG. 3C) | stimulating effect of CD4+ T cells versus controls with only antigen Ova [2] | stimulating effect of CD8+ T cells versus controls with only antigen Ova ([3]; CFSE loss up to 7 days, DCs activated with Ova + 10 μg compound, FIG. 4C/4D) |
| --- | --- | --- | --- | --- | --- | --- |
| CCCCCCCCCCCCCCCCCCCCCCCCCC(=O)N(CC(=O)NCCCCCCN)[C@@H](CO[C@H]1OC(CO)[C@H](O)C(O)C1O)[C@H](O)[C@H](O)CCCCCCCCCCCCCC (stereo partly drawn) [IPB 2035] | improved stimulation | at least equivalent | – | – | – | – |
| CCCCCCCCCCCCCCCCCCCCCCCC(=O)N(CC(=O)NCCCCCCCCCCCCCCCCCC)[C@@H](CO[C@H]1OC(CO)[C@H](O)C(O)C1O)[C@H](O)[C@H](O)CCCCCCCCCCCCCC (stereo partly drawn) [IPB 2040] | improved stimulation | improved stimulation | – | – | – | – |
| CCCCCCCCCCCCCCCCCCCCCCCC(=O)N(CC(=O)NCCC(=O)O)[C@@H](CO[C@H]1OC(CO)[C@H](O)C(O)C1O)[C@H](O)[C@H](O)CCCCCCCCCCCCCC (stereo partly drawn) [IPB 0964] | – | – | high capacity | strong effect; also recorded: beneficial effect | – | – |
| CCCCCCCCCCCCCCCCCCCCCCCCCC(=O)N(CC(=O)NCCN1C(=O)c2cccc3c(N(C)C)ccc(c23)C1=O)[C@@H](CO[C@H]1OC(CO)[C@H](O)C(O)C1O)[C@H](O)[C@H](O)CCCCCCCCCCCCCC (stereo partly drawn) [IPB 2041] | at least equivalent | improved stimulation | – | – | – | – |
| CCCCCCCCCCCCCCCCCCCCCCCCCC(=O)N(CC(=O)NCCOCCOCCOCCOCCOC)[C@@H](CO[C@H]1OC(CO)[C@H](O)[C@H](O)C1O)[C@H](O)[C@H](O)CCCCCCCCCCCCCC (stereo partly drawn) [IPB 2044] | at least equivalent | at least equivalent | – | – | – | – |
| CCCCCCCCCCCCCCCCCCCCCCCCCC(=O)N(CC(=O)NC1CCCCC1)[C@@H](CO[C@H]1OC(CO)[C@H](O)C(O)C1O)[C@H](O)[C@H](O)CCCCCCCCCCCCCC (stereo partly drawn) [IPB 2039] | improved stimulation | improved stimulation | – | – | stimulating effect of CD4+ T cells beyond controls | stimulating effect of CD8+ T cells beyond controls |
| CCCCCCCCCCCCCCCCCCCCCCCCCC(=O)N(CC(=O)NCCC(=O)OC(C)(C)C)[C@@H](CO[C@H]1OC(CO)[C@H](O)C(O)C1O)[C@H](O)[C@H](O)CCCCCCCCCCCCCC (stereo partly drawn) [IPB 2043] | improved stimulation | improved stimulation | – | – | – | – |
| CCCCCCCCCCCCCCCCCCCCCCCCCC(=O)N(CC(=O)NCCCc1ccccc1)[C@@H](CO[C@H]1OC(CO)[C@H](O)C(O)C1O)[C@H](O)[C@H](O)CCCCCCCCCCCCCC (stereo partly drawn) [IPB 2037] | improved stimulation | at least equivalent | – | – | – | – |
| CCCCCCCCCCCCCCCCCCCCCCCCCC(=O)N(CC(=O)NCc1ccccc1)[C@@H](CO[C@H]1OC(CO)[C@H](O)C(O)C1O)[C@H](O)[C@H](O)CCCCCCCCCCCCCC (stereo partly drawn) [IPB 2042] | improved stimulation | improved stimulation | – | – | – | – |
| CCCCCCCCCCCCCCCCCCCCCCCCCC(=O)N(CC(=O)NCC(OC)OC)[C@@H](CO[C@H]1OC(CO)[C@H](O)C(O)C1O)[C@H](O)[C@H](O)CCCCCCCCCCCCCC (stereo partly drawn) [IPB 2038] | at least equivalent | improved stimulation | – | – | stimulating effect of CD4+ T cells beyond controls | – |
| CCCCCCCCCCCCCCCCCCCCCCCCCC(=O)N(CC(=O)NCCCCCCCCCCCCCCCCCC)[C@@H](CO[C@H]1OC(CO)[C@H](O)C(O)C1O)[C@H](O)[C@H](O)CCCCCCCCCCCCCC (stereo partly drawn) [IPB 2033] | improved stimulation | improved stimulation | – | – | – | – |
| CCCCCCCCCCCCCCCCCCCCCCCCCC(=O)N(CC(=O)NCCOCCOCCOCCOC)[C@@H](CO[C@H]1OC(CO)[C@H](O)[C@H](O)C1O)[C@H](O)[C@H](O)CCCCCCCCCCCCCC (stereo partly drawn) [IPB 2034] | improved stimulation | at least equivalent | – | – | – | – |
